The target of the first data set is T1, hTRPA1 (Homo sapiens, UniProt O75762).
T1 construct: expressed in transfected cells
T1 sequence (O75762 whole entry): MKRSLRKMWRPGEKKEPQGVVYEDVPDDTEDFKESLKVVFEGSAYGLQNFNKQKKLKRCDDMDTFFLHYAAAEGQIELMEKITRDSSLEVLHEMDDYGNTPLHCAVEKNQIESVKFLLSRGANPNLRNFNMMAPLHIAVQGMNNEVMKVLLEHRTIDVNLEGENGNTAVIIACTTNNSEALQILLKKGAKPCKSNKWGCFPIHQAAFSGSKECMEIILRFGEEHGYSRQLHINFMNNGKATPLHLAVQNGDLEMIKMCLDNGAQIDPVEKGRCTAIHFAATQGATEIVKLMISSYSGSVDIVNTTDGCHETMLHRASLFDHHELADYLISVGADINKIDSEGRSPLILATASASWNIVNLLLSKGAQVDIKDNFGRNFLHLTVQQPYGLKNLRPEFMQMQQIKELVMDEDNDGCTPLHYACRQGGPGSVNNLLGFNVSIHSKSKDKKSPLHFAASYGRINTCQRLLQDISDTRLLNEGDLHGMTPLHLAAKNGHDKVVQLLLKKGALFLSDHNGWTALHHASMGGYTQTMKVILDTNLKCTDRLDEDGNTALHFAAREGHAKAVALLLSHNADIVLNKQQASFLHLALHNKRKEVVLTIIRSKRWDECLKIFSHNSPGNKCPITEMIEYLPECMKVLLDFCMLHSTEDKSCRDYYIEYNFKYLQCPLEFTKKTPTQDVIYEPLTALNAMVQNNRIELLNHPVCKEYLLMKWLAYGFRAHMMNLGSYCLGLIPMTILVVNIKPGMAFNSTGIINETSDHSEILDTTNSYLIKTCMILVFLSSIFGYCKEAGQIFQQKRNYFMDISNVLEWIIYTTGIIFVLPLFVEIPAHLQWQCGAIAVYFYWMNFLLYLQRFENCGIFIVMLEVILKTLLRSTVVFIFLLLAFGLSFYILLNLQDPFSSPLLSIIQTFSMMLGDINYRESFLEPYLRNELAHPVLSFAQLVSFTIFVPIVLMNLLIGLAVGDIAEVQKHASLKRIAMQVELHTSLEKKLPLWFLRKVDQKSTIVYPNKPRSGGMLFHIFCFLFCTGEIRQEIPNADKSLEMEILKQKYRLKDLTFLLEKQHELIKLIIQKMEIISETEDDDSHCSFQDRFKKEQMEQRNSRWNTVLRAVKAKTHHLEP
In words: Ca2+ fluorometry TRPA1 antagonism in hTRPA1/TREx-HEK293 cells (FDSS). The settings on record: 11H-dibenzo[b,e]azepine-10-carboxylic acid methyl ester as TRPA1 agonist (25 nM), hTRPA1-HEK cells, Fluo4-AM. Type of data set: cell-based. An excerpt:
The Human TRPA1 gene was cloned into the pT-REx-Dest30 inducible vector and afterwards stably transfected in T-Rex^TM-293 cells (purchased from Invitrogen, Merelbeke, Belgium). This tetracyclin inducible hTRPA1 expression system was used in order to prevent Ca^2+ overload in the cultured cells due to sustained TRPA1 expression. hTRPAl/TREx-HEK293 cells (referred to as hTRPA1 cells in the following text) were maintained under standard sterile cell culture conditions.
Binding of an agonist to the TRPA1 ion-channel activates and opens the ion-channel which causes a robust increase in intracellular Ca^2+ concentration. For detecting and measuring intracellular Ca^2+ concentration, cells were loaded with a Ca^2+-sensitive dye. Changes in fluorescence in the cell, that correspond to changes in Ca^2+ concentration in the cell, can kinetically be monitored with the FDSS instrument (Hamamatsu) and are indicative for agonism towards the TRPA1 ion channel and this can be reduced by TRPA1-receptor antagonists.
The cells were seeded in poly-D-lysine-coated 384-well round bottom polypropylene plates (Costar Corning, Data Packaging, Cambridge Mass., USA) at 12000 cells/well. 50 ng/ml tetracycline was added to induce the hTRPA1 expression 24 h before the experiment.
The cells were loaded with 5 mg/l Fluo4-AM (Molecular Probes, Invitrogen, Merelbeke, Belgium) dissolved in HBSS seeding medium supplemented with 0.7 g/l Probenecid (Sigma) and incubated for 1 h at 37° C. and subsequently at 20° C. for 1 to 2 h. The fluorescence was measured in the FDSS 6000 imaging based plate reader (Hamamutsu Photonics K.K., Hamamutsu City, Japan). The excitation wavelength was 488 nm and the emission wavelength 540 nm. After a control period of 12 seconds the JNJ compounds were added and the Ca^2+ signal was measured within 14 minutes after application. Finally, the control TRPA1 agonist 11H-dibenzo[b,e]azepine-10-carboxylic acid methyl ester [the synthesis of which is hereafter described as compound (D-6)] or BITC (benzylisothiocyanate, FLUKA) was added at a final concentration of 25 nM. […] The emission ratio was calculated by dividing the emission signal (Em540) by the first Em540 signal of the control period to compensate for the background fluorescence. On every 384 well plate 4 series of DMSO control experiments were performed of which 2 with and 2 without control agonist 11H-dibenzo[b,e]azepine-10-carboxylic acid methyl ester or BITC. For intracellular Ca^2+ measurements compound stock solutions (10 or 100 mM) were further diluted in DMSO in order to obtain finally 1% DMSO in the extracellular solution.
Regarding `O=C1C2=C(NC(=S)NC2c2cccc(OCCCCO)c2)c2ccccc21` (stereo not shown) [compound 25], the IC50 (as a rule, the point on the concentration scale where inhibition reaches its midpoint) is around 685 nM.

`COCCCOc1cccc([C@H]2NC(=O)NC3=C2C(=O)c2ccccc23)c1` [compound 18] yielded an IC50 of 1320 nM. That is a single-digit micromolar value.

Take `O=C1C2=C(NC(=S)NC2c2cccc(F)c2)c2ccccc21` (stereo not shown) [compound 8]: the concentration for half-maximal inhibition (IC50) was around 1060 nM.

For `O=C1C2=C(NC(=S)NC2c2cccc(OCCCOc3ccc(F)cc3)c2)c2ccccc21` (stereo not shown) [compound 23], the IC50 stood at 4860 nM. This counts as single-digit micromolar.

For the molecule `O=C1C2=C(NC(=S)NC2c2cccc(-c3ccc(C(F)(F)F)cc3)c2)c2ccccc21` (stereo not shown) [compound 31], the half-maximal inhibitory concentration (IC50) was above 10000 nM.

For the molecule `COc1ccc(F)c(C2NC(=S)NC3=C2C(=O)c2ccccc23)c1` (stereo not shown) [compound 10], the IC50 is around 365 nM.

For `O=C1C2=C(NC(=S)NC2c2cccc(CO)c2)c2ccccc21` (stereo not shown) [compound 14], the 50% inhibitory concentration (IC50) is around 708 nM.

The molecule `O=C1C2=C(NC(=S)NC2c2cccc3c2OCO3)c2ccccc21` (stereo not shown) [compound 12] gave a 50% inhibitory concentration (IC50) of around 4410 nM.

Consider `COc1cccc(C2NC(=S)NC3=C2C(=O)c2ccccc23)c1` (stereo not shown) [compound 1], for which the IC50 was around 128 nM.

In the case of `COCCCOc1cccc(C2NC(=S)NC3=C2C(=O)c2ccccc23)c1` (stereo not shown) [compound 7], the IC50 was 47 nM.

Regarding `COc1cccc(C2NC(=O)N(Cc3ccccc3)C3=C2C(=O)c2ccccc23)c1` (stereo not shown) [compound 4], the IC50 was around 6030 nM.

Regarding `COc1cccc(C2NC(=S)NC3=C2C(=O)c2ccccc23)c1F` (stereo not shown) [compound 16], the half-inhibitory concentration (IC50) was around 287 nM.

`COc1cccc(C2NC(=S)NC3=C2C(=O)c2ccccc23)c1OC` (stereo not shown) [compound 9] returned an IC50 above 10000 nM.

The molecule `O=C1C2=C(NC(=S)NC2c2cccc(OCCO)c2)c2ccccc21` (stereo not shown) [compound 13] gave a half-maximal inhibitory concentration (IC50) of 213 nM.

`O=C1C2=C(NC(=S)NC2c2cccc(Br)c2)c2ccccc21` (stereo not shown) [compound 11] displayed an IC50 of 495 nM.

`O=C1C2=C(NC(=S)NC2c2cncc(Br)c2)c2ccccc21` (stereo not shown) [compound 32]: the IC50 is 1670 nM. Against the preceding molecule, the IC50 is about 3.4-fold higher.

`CC(=O)OCCCCOc1cccc(C2NC(=S)NC3=C2C(=O)c2ccccc23)c1` (stereo not shown) [compound 26] yielded an IC50 of 557 nM.

The molecule `COc1cc(OC)cc(C2NC(=S)NC3=C2C(=O)c2ccccc23)c1` (stereo not shown) [compound 5] registered a concentration for half-maximal inhibition (IC50) of around 2780 nM.

Regarding `COCCCOc1cccc([C@H]2NC(=S)NC3=C2C(=O)c2ccccc23)c1` [compound 29], the IC50 is around 13 nM.

As for `COc1ccc(OC)c(C2NC(=S)NC3=C2C(=O)c2ccccc23)c1` (stereo not shown) [compound 15], the 50% inhibitory concentration (IC50) is above 10000 nM.

For the molecule `COCCCOc1cccc([C@@H]2NC(=S)NC3=C2C(=O)c2ccccc23)c1` [compound 30], the IC50 is above 10000 nM.

In the case of `O=C1C2=C(NC(=S)NC2c2cccc(O)c2)c2ccccc21` (stereo not shown) [compound 6], the IC50 is around 636 nM.

The molecule `CCN(CC)CCOc1cccc(C2NC(=S)NC3=C2C(=O)c2ccccc23)c1` (stereo not shown) [compound 22] yielded an IC50 of 1200 nM.

`COCCCOc1cccc([C@@H]2NC(=O)NC3=C2C(=O)c2ccccc23)c1` [compound 19]: the half-maximal inhibitory concentration (IC50) is above 10000 nM.

The molecule `COc1cccc(C2C3=C(NC(=S)N2C)c2ccccc2C3=O)c1` (stereo not shown) [compound 27] came in with an IC50 above 10000 nM.

With `CCCCOc1cccc(C2NC(=S)NC3=C2C(=O)c2ccccc23)c1` (stereo not shown) [compound 21], the half-inhibitory concentration (IC50) is 314 nM.

Take `COc1cccc([C@H]2NC(=S)NC3=C2C(=O)c2ccccc23)c1` [compound 2]: the IC50 was around 76 nM.

`COc1cccc(C2NC(=S)N(C)C3=C2C(=O)c2ccccc23)c1` (stereo not shown) [compound 28] displayed an IC50 of around 85 nM.

For the molecule `COc1cccc([C@@H]2NC(=S)NC3=C2C(=O)c2ccccc23)c1` [compound 3], the IC50 is above 10000 nM.

Test system in a further data set: not given
Experiment: not given
Settings: not given
On to `O=C1C2=C(NC(=S)NC2c2cccc(-c3ccc(C(F)(F)F)cc3)c2)c2ccccc21` (stereo not shown) [Co. No. 31], for which the melting point (usually the temperature of the solid-liquid transition) came to 149.46 °C.

`O=C1C2=C(NC(=S)NC2c2cccc(OCCO)c2)c2ccccc21` (stereo not shown) [Co. No. 13] yielded a melting point of 261.08 °C.

On to `COCCCOc1cccc([C@H]2NC(=O)NC3=C2C(=O)c2ccccc23)c1` [Co. No. 18], for which the melting point worked out at 206.47 °C.

`COc1cccc(C2NC(=O)N(Cc3ccccc3)C3=C2C(=O)c2ccccc23)c1` (stereo not shown) [Co. No. 4] returned a melting point of 188.65 °C.

In the case of `COc1cccc(C2NC(=S)NC3=C2C(=O)c2ccccc23)c1F` (stereo not shown) [Co. No. 16], the melting point was found to be 287.05 °C.

On to `COc1ccc(OC)c(C2NC(=S)NC3=C2C(=O)c2ccccc23)c1` (stereo not shown) [Co. No. 15], for which the melting point stood at 295.33 °C.

`COc1cccc(C2NC(=S)NC3=C2C(=O)c2ccccc23)c1` (stereo not shown) [Co. No. 1]: the melting point came to 295.22 °C.

Take `O=C1C2=C(NC(=S)NC2c2cccc(OCCCCO)c2)c2ccccc21` (stereo not shown) [Co. No. 25]: the melting point amounted to 224.49 °C.

Consider `COc1cccc(C2C3=C(NC(=S)N2C)c2ccccc2C3=O)c1` (stereo not shown) [Co. No. 27], for which the melting point was 286.94 °C.

In the case of `O=C1C2=C(NC(=S)NC2c2cncc(Br)c2)c2ccccc21` (stereo not shown), the melting point amounted to 294.61 °C.

The molecule `O=C1C2=C(NC(=S)NC2c2cccc3c2OCO3)c2ccccc21` (stereo not shown) [Co. No. 12] displayed a melting point of 289.34 °C.

Consider `COc1cccc([C@@H]2NC(=S)NC3=C2C(=O)c2ccccc23)c1` [Co. No. 3], for which the melting point is 253.6 °C.

In turn, `O=C1C2=C(NC(=S)NC2c2cccc(OCCCOc3ccc(F)cc3)c2)c2ccccc21` (stereo not shown) [Co. No. 23] registered a melting point of 245.01 °C.

`CN(C)CCCOc1cccc(C2NC(=S)NC3=C2C(=O)c2ccccc23)c1` (stereo not shown) [Co. No. 24] came in with a melting point of 237.9 °C.

Consider `COc1ccc(Oc2cccc(C3NC(=S)NC4=C3C(=O)c3ccccc34)c2)cc1` (stereo not shown) [Co. No. 20], for which the melting point stood at 269.04 °C.

In turn, `CCN(CC)CCOc1cccc(C2NC(=S)NC3=C2C(=O)c2ccccc23)c1` (stereo not shown) [Co. No. 22] registered a melting point of 243.58 °C.

Turning to `O=C1C2=C(NC(=S)NC2c2cccc(O)c2)c2ccccc21` (stereo not shown) [Co. No. 6], the melting point came to 288.04 °C.

The molecule `COCCCOc1cccc([C@@H]2NC(=O)NC3=C2C(=O)c2ccccc23)c1` [Co. No. 19] yielded a melting point of 207.44 °C.

Regarding `COc1cccc([C@H]2NC(=S)NC3=C2C(=O)c2ccccc23)c1` [Co. No. 2], the melting point is 252.73 °C.

In turn, `CC(=O)OCCCCOc1cccc(C2NC(=S)NC3=C2C(=O)c2ccccc23)c1` (stereo not shown) [Co. No. 26] showed a melting point of 199.5 °C.

Turning to `COc1cc(OC)cc(C2NC(=S)NC3=C2C(=O)c2ccccc23)c1` (stereo not shown) [Co. No. 5], the melting point was found to be 287.08 °C.

Take `COc1ccc(F)c(C2NC(=S)NC3=C2C(=O)c2ccccc23)c1` (stereo not shown) [Co. No. 10]: the melting point amounted to 289.27 °C.

The molecule `O=C1C2=C(NC(=S)NC2c2cccc(CO)c2)c2ccccc21` (stereo not shown) [Co. No. 14] displayed a melting point of 265.63 °C.

For the origin of these results see patent publication US20110124666A1, “3,4-DIHYDROPYRIMIDINE TRPA1 ANTAGONISTS” (Janssen Pharmaceutica NV a corporation, priority 2008, published 2011).
